According to patent US11963995B2, “Methods comprising desmopressin” (Ferring B.V., priority 2008, dated 2024):

Tested on: adult patients with nocturia
Test: Number of nocturnal voids, change from baseline to Day 28 (Study CS29 Part I)
Type: in vivo, human
Settings: for fewer nocturnal urinary voids per night compared to baseline before treatment (median): Day 28; for Change from baseline to final visit (Day 28) of nocturnal voids, mean / Change from baseline to final visit (Day 28) of nocturnal voids, median: ITT, Part I; for minimum effective dose (MED): primary endpoint nocturnal voids
Description: The term “nocturnal void” as used herein refers to a void occurring from 5 minutes after bedtime until rising in the morning with the intention of getting up.
All treatments were administered orally once per night approximately 1 hour prior to bedtime; subjects were instructed to limit their fluid intake prior to drug self-administration. […] Randomization was to be stratified by age (<65, ≥65 years) and by the absence/presence of nocturnal polyuria, defined as a ratio of nighttime urine volume/24-hour urine volume 33%. To achieve the desired number of subjects within each stratum, enrollment of subjects in a particular stratum (age and/or presence/absence of nocturnal polyuria) could be halted. If this was necessary, all investigative sites were to be informed in writing at least 1 week in advance to stop screening in a population of subjects.
A total of 750 subjects were planned to be enrolled, with approximately 150 subjects per treatment group. Part I of the study was conducted in 7 visits. Screening (Visit 1) occurred within 21 days of dosing (Day 1, Visit 2); subjects returned for follow-up visits on Days 4, 8, 15, 22, and 28 (end of Part I). Duration of treatment in Part I was 28 days.
Subjects who met the following inclusion criteria were eligible for the study: provided written informed consent prior to the performance of any study-related activity, defined as any procedure that would not have been performed during the normal management of the subject; and was a male or female subject, 18 years of age and older, with an average of ≥2 nocturnal voids per night determined via a 3-day frequency-volume chart during the screening period
All treatments were administered orally once per night approximately 1 hour prior to bedtime. Subjects were instructed to place the tablet under their tongue, without water. Subjects were provided with sufficient study drug for the duration of Part I.
The primary endpoints for efficacy assessment were: (1) change in mean number of nocturnal voids from baseline evaluation to final visit (Day 28); and (2) proportion of subjects with >33% reduction in the mean number of nocturnal voids from baseline to final visit (Day 28). A further description and corresponding data directed to the second primary endpoint (i.e., portion of subjects with >33% reduction in the mean number of nocturnal voids) are not provided herein.
Of the 799 randomized subjects in Part I, 757 subjects who received at least 1 dose of study drug and had follow-up data were included in the intent to treat (ITT) analysis dataset. […] All 799 randomized subjects received at least 1 dose of study drug (desmopressin or placebo) and had at least 1 safety assessment and, therefore, were included in the safety analysis dataset.
Missing values concerning number of nocturnal voids at Day 8, Day 15, Day 22, and Day 28 in Part I were imputed using last observation carried forward (LOCF). Missing values concerning sleep disturbance and urine volume (for average 24-hour urine volume and average nocturnal urine volume) were not imputed.

[1] = 10 ug, all males with monitoring
[2] = 10 ug, females over 50 years of age
[3] = 10 ug, females over 65 years of age
[4] = 25 ug, all males with monitoring
[5] = 25 ug, females over 50 years of age
[6] = 25 ug, females over 65 years of age
[7] = 50 ug, all males with monitoring
[8] = 50 ug, females over 50 years of age
[9] = 50 ug, females over 65 years of age
[10] = 100 ug, all males with monitoring
[11] = 100 ug, females over 50 years of age
[12] = 100 ug, females over 65 years of age

NC(=O)CC[C@@H]1NC(=O)[C@H](Cc2ccccc2)NC(=O)[C@H](Cc2ccc(O)cc2)NC(=O)CCSSC[C@@H](C(=O)N2CCC[C@H]2C(=O)N[C@H](CCCN=C(N)N)C(=O)NCC(N)=O)NC(=O)[C@H](CC(N)=O)NC1=O [desmopressin]
fewer nocturnal urinary voids per night compared to baseline before treatment (median) (10 μg, all females): at least 1.0 voids per night | Change from baseline to final visit (Day 28) of nocturnal voids, mean (10 ug, all females): −1.15 | Change from baseline to final visit (Day 28) of nocturnal voids, median (10 ug, all females): −1.00 | Change from baseline to final visit (Day 28) of nocturnal voids, mean (10 ug, all groups): −0.83 | Change from baseline to final visit (Day 28) of nocturnal voids, median (10 ug, all groups): −0.67 | Change from baseline to final visit (Day 28) of nocturnal voids, mean [1]: −0.66 | Change from baseline to final visit (Day 28) of nocturnal voids, median [1]: −0.67 | Change from baseline to final visit (Day 28) of nocturnal voids, mean (10 ug, all males): −0.54 | Change from baseline to final visit (Day 28) of nocturnal voids, median (10 ug, all males): −0.67 | fewer nocturnal urinary voids per night compared to baseline before treatment (median) (10 μg, females over 50 years of age): at least 1.0 voids per night | Change from baseline to final visit (Day 28) of nocturnal voids, mean [2]: −1.08 | Change from baseline to final visit (Day 28) of nocturnal voids, median [2]: −1.00 | Change from baseline to final visit (Day 28) of nocturnal voids, mean [3]: −0.93 | Change from baseline to final visit (Day 28) of nocturnal voids, median [3]: −0.67 | fewer nocturnal urinary voids per night compared to baseline before treatment (median) (25 μg, all females): at least 1.0 voids per night | Change from baseline to final visit (Day 28) of nocturnal voids, mean (25 ug, all females): −1.22 | Change from baseline to final visit (Day 28) of nocturnal voids, median (25 ug, all females): −1.33 | Change from baseline to final visit (Day 28) of nocturnal voids, mean (25 ug, all groups): −1.00 | Change from baseline to final visit (Day 28) of nocturnal voids, median (25 ug, all groups): −1.00 | Change from baseline to final visit (Day 28) of nocturnal voids, mean [4]: −0.91 | Change from baseline to final visit (Day 28) of nocturnal voids, median [4]: −0.67 | Change from baseline to final visit (Day 28) of nocturnal voids, mean (25 ug, all males): −0.83 | Change from baseline to final visit (Day 28) of nocturnal voids, median (25 ug, all males): −0.67 | fewer nocturnal urinary voids per night compared to baseline before treatment (median) (25 μg, females over 50 years of age): at least 1.0 voids per night | Change from baseline to final visit (Day 28) of nocturnal voids, mean [5]: −1.35 | Change from baseline to final visit (Day 28) of nocturnal voids, median [5]: −1.33 | fewer nocturnal urinary voids per night compared to baseline before treatment (median) (25 μg, females over 65 years of age): at least 1.67 voids per night | Change from baseline to final visit (Day 28) of nocturnal voids, mean [6]: −1.27 | Change from baseline to final visit (Day 28) of nocturnal voids, median [6]: −1.67 | proportion of subjects with >75% reductions in the mean number of nocturnal voids (50 μg, Day 28 (placebo 5%)): 10% | proportion of subjects with >50% reductions in the mean number of nocturnal voids (50 μg, Day 28 (placebo 20%)): 28% | proportion of subjects with >33% reductions in the mean number of nocturnal voids (50 μg, Day 28 (placebo 47%)): 53% | Change from baseline to final visit (Day 28) of nocturnal voids, mean (50 ug, all females): −1.23 | Change from baseline to final visit (Day 28) of nocturnal voids, median (50 ug, all females): −1.00 | Change from baseline to final visit (Day 28) of nocturnal voids, mean (50 ug, all groups): −1.18 | Change from baseline to final visit (Day 28) of nocturnal voids, median (50 ug, all groups): −1.00 | Change from baseline to final visit (Day 28) of nocturnal voids, mean [7]: −1.09 | Change from baseline to final visit (Day 28) of nocturnal voids, median [7]: −1.00 | Change from baseline to final visit (Day 28) of nocturnal voids, mean (50 ug, all males): −1.13 | Change from baseline to final visit (Day 28) of nocturnal voids, median (50 ug, all males): −1.00 | Change from baseline to final visit (Day 28) of nocturnal voids, mean [8]: −1.15 | Change from baseline to final visit (Day 28) of nocturnal voids, median [8]: −1.00 | Change from baseline to final visit (Day 28) of nocturnal voids, mean [9]: −0.97 | Change from baseline to final visit (Day 28) of nocturnal voids, median [9]: −1.00 | Change from baseline to final visit (Day 28) of nocturnal voids, mean (100 ug, all females): −1.51 | Change from baseline to final visit (Day 28) of nocturnal voids, median (100 ug, all females): −1.33 | Change from baseline to final visit (Day 28) of nocturnal voids, mean (100 ug, all groups): −1.43 | Change from baseline to final visit (Day 28) of nocturnal voids, median (100 ug, all groups): −1.33 | Change from baseline to final visit (Day 28) of nocturnal voids, mean [10]: −1.41 | Change from baseline to final visit (Day 28) of nocturnal voids, median [10]: −1.67 | Change from baseline to final visit (Day 28) of nocturnal voids, mean (100 ug, all males): −1.38 | Change from baseline to final visit (Day 28) of nocturnal voids, median (100 ug, all males): −1.33 | Change from baseline to final visit (Day 28) of nocturnal voids, mean [11]: −1.44 | Change from baseline to final visit (Day 28) of nocturnal voids, median [11]: −1.33 | Change from baseline to final visit (Day 28) of nocturnal voids, mean [12]: −1.00 | Change from baseline to final visit (Day 28) of nocturnal voids, median [12]: −1.00 | minimum effective dose (MED) (females): 25 µg | minimum effective dose (MED) (males): 100 µg
